The results in this text go back to US8916702B2 (priority 2012, dated 2014).

Usually EC50 stands for the concentration at which the effect is half-maximal.

The test system of this experiment is HCV pseudoparticles (genotype 1a HCV E1 and E2 envelope, H77C isolate). Kind of experiment: microbe, parasite or virus in culture. In kind it is cell-based. To be noted: Hepatitis C virus, Huh-7, 48 h, average of duplicates.
[1] abbreviates: read-out: Activity (EC50 class), HCV pseudoparticles, Huh7 cells, luciferase 2 days after infection.
[2] abbreviates: HCV pseudoparticles, Huh7 cells, luciferase 2 days after infection.

The structures appear in SMILES notation. Read-outs that look alike come from different tables or passages of the source.

With `CC(C)c1ccc(COc2nc(Nc3ccc(C(=O)NCC(C)(C)CNC(=O)C(=O)Nc4ccc(F)cc4F)c(F)c3)nc(NC3(c4ccc(Cl)cc4)CC3)n2)cc1` [Compound 3835, N^1-(3-(4-((4-((1-(4-chlorophenyl)cyclopropyl)amino)-6-((4-isopropylbenzyl)oxy)-1,3,5-triazin-2-yl)amino)-2-fluorobenzamido)-2,2-dimethylpropyl)-N^2-(2,4-difluorophenyl)oxalamide], under setting [1], the EC50 lay in the range of 0.01 to 10 nM.

`CC(C)n1ccc(NC(=O)C(=O)NCC(C)(C)CNC(=O)c2ccc(Nc3nc(NC4(c5ccc(Cl)cc5)CC4)nc(OCC(F)(F)F)n3)cc2)n1` [Compound 3836]: the EC50 under setting [1] lay in the range of 0.01 to 10 nM.

Turning to `CC(C)(CNC(=O)C(=O)Nc1nc2c(Cl)ccc(Cl)c2s1)CNC(=O)c1ccc(Nc2nc(NC3(c4ccc(Cl)cc4)CC3)nc(OCC(F)(F)F)n2)cc1` [Compound 3837], under setting [1], the EC50 lay in the range of 0.01 to 10 nM.

Take `NC(=O)C(=O)NCC(CO)(CO)CNC(=O)c1ccc(Nc2nc(NC3(c4ccc(Cl)cc4)CC3)nc(OCC(F)(F)F)n2)cc1` [Compound 3838, N^1-(3-(4-((4-((1-(4-chlorophenyl)cyclopropyl)amino)-6-(2,2,2-trifluoroethoxy)-1,3,5-triazin-2-yl)amino)benzamido)-2,2-bis(hydroxymethyl)propyl)oxalamide]: the half-maximal effective concentration (EC50) is 0.052 nM under setting [2] and 0.01 to 10 nM under setting [1].

Consider `Cc1ccc(NC(=O)C(=O)NCC(C)(C)CNC(=O)c2ccc(Nc3nc(NC4(c5ccc(Cl)cc5)CC4)nc(OCc4ccc(C(C)C)cc4)n3)cc2)cc1` [Compound 3839], for which the EC50 reads like this: under setting [2], 0.078 nM; under setting [1], 0.01 to 10 nM.

On to `Cc1ccc(NC(=O)C(=O)NCC(C)(C)CNC(=O)c2ccc(Nc3nc(NC4(c5ccc(Cl)cc5)CC4)nc(OCc4ccc(OC(F)F)cc4)n3)cc2)cc1` [Compound 3840], for which, under setting [1], the concentration for a half-maximal effect (EC50) fell in the range of 0.01 to 10 nM.

`Cc1ccc(NC(=O)C(=O)NCC(C)(C)CNC(=O)c2ccc(Nc3nc(NC4(c5ccc(Cl)cc5)CC4)nc(OCc4ccc(C(C)(C)C)cc4)n3)cc2)cc1` [Compound 3841]: the EC50 under setting [1] is 0.01 to 10 nM.

As for `CCc1ccc(COc2nc(Nc3ccc(C(=O)NCC(C)(C)CNC(=O)C(=O)Nc4ccc(C)cc4)cc3)nc(NC3(c4ccc(Cl)cc4)CC3)n2)cc1` [Compound 3842], the EC50 under setting [1] was in the range of 0.01 to 10 nM.

`Cc1ccc(NC(=O)C(=O)NCC(C)(C)CNC(=O)c2ccc(Nc3nc(NC4(c5ccc(Cl)cc5)CC4)nc(OCc4ccccc4)n3)cc2)cc1` [Compound 3843]: under setting [1], the 50% effective concentration (EC50) fell in the range of 0.01 to 10 nM.

With `Cc1ccc(NC(=O)C(=O)NCC(C)(C)CNC(=O)c2ccc(Nc3nc(NC4(c5ccc(Cl)cc5)CC4)nc(OCc4cccc(Cl)c4)n3)cc2)cc1` [Compound 3844], the EC50 under setting [1] fell in the range of 0.01 to 10 nM.

Consider `Cc1ccc(NC(=O)C(=O)NCC(C)(C)CNC(=O)c2ccc(Nc3nc(NC4(c5ccc(Cl)cc5)CC4)nc(OCc4ccc(F)cc4)n3)cc2)cc1` [Compound 3845], for which the half-maximal effective concentration (EC50) is 0.022 nM under setting [2] and 0.01 to 10 nM under setting [1].

Turning to `Cc1ccc(NC(=O)C(=O)NCC(C)(C)CNC(=O)c2ccc(Nc3nc(NC4(c5ccc(Cl)cc5)CC4)nc(OCc4cccc(F)c4)n3)cc2)cc1` [Compound 3846], the EC50 under setting [1] is 0.01 to 10 nM.

As to `Cc1ccc(NC(=O)C(=O)NCC(C)(C)CNC(=O)c2ccc(Nc3nc(NC4(c5ccc(Cl)cc5)CC4)nc(OCc4ccccc4F)n3)cc2)cc1` [Compound 3847], the EC50 by setting is: under setting [2], 0.027 nM; under setting [1], 0.01 to 10 nM.

As for `Cc1ccc(COc2nc(Nc3ccc(C(=O)NCC(C)(C)CNC(=O)C(=O)Nc4ccc(C)cc4)cc3)nc(NC3(c4ccc(Cl)cc4)CC3)n2)cc1` [Compound 3848], under setting [1], the EC50 fell in the range of 0.01 to 10 nM.

Take `Cc1ccc(NC(=O)C(=O)NCC(C)(C)CNC(=O)c2ccc(Nc3nc(NC4(c5ccc(Cl)cc5)CC4)nc(OCc4ccc(Cl)cc4)n3)cc2)cc1` [Compound 3849]: the EC50 under setting [1] lay within 0.01 to 10 nM.

On to `Cc1ccc(NC(=O)C(=O)NCC(C)(C)CNC(=O)c2ccc(Nc3nc(NC4(c5ccc(Cl)cc5)CC4)nc(OCc4ccccc4Cl)n3)cc2)cc1` [Compound 3850], for which the concentration for a half-maximal effect (EC50) under setting [1] lay in the range of 0.01 to 10 nM.

In the case of `Cc1ccc(NC(=O)C(=O)NCC(C)(C)CNC(=O)c2ccc(Nc3nc(NC4(c5ccc(Cl)cc5)CC4)nc(OCc4ccc(C(F)(F)F)cc4)n3)cc2)cc1` [Compound 3851], under setting [1], the 50% effective concentration (EC50) lay within 0.01 to 10 nM.

Consider `CC(C)(CNC(=O)C(=O)Nc1ccc(C#N)cc1)CNC(=O)c1ccc(Nc2nc(NC3(c4ccc(Cl)cc4)CC3)nc(OCc3ccc(OC(F)(F)F)cc3)n2)cc1` [Compound 3852], for which the EC50 under setting [1] fell in the range of 0.01 to 10 nM.

With `CC(C)(CNC(=O)C(=O)Nc1ccc(C#N)cc1)CNC(=O)c1ccc(Nc2nc(NC3(c4ccc(Cl)cc4)CC3)nc(OCc3ccccc3F)n2)cc1` [Compound 3853], the EC50 under setting [1] lay within 0.01 to 10 nM.
